US5958496A, “Aspartyl dipeptide amide derivatives and sweeteners” (Ajinomoto Co., Inc., priority 1996, dated 1999)
Peptide text beside a SMILES is read from it.

Experiments:
[1] = Sensory evaluation of degree of sweetness relative to sugar; details: for degrees of sweetness: relative to a degree of sweetness of a 4% aqueous sucrose solution; for degree of sweetness: sensory evaluation
Excerpt: ^3 Degree of sweetness relative to a degree of sweetness of a 4%

[2] = Stability (half-life) in phosphate buffer of pH 3 at 70° C.; assay type: physicochemical; details: acidic aqueous solution
Experimental: The peptides of the present invention may be 2 to 15 times as stable as aspartame when measured in a phosphate buffer of pH 3 at 70° C. This range in stability as compared to aspartame includes all specific values and subranges therebetween. The half-lives (in a phosphate buffer of pH 3 at 70° C.) of α-L-aspartyl-D-valine (R)-α-methylthiomethylbenzylamide, α-L-aspartyl-D-isoleucine (R)-α-methylthiomethylbenzylamide and α-L-aspartyl-D-valine (S)-α-methoxycarbonylmethylbenzylamide in an acidic aqueous solution were approximately 220 hours, 650 hours and 139 hours respectively.

Row | half-life [2] | SMILES | degrees of sweetness [1] | Degree of sweetness (relative to sugar) [1] | degree of sweetness [1]
1 |  | COC(=O)CC(NC(=O)[C@H](NC(=O)[C@@H](N)CC(=O)O)C(C)C)C1CCCCC1 (mixture of isomers) [Example 6, α-L-aspartyl-D-valine (RS)-α-cyclohexyl-β-methoxycarbonylethylamide] | 400 | 400 times | 
2 |  | CC[C@@H](NC(=O)[C@@H](N)CC(=O)O)C(=O)NC(CC(=O)OC)c1ccccc1 (mixture of isomers) [Example 10, α-L-aspartyl-D-α-aminobutyric acid (RS)-α-methoxycarbonylmethylbenzylamide] | 800 | 800 times | 
3 |  | CC[C@@H](NC(=O)[C@@H](N)CC(=O)O)C(=O)NC(CC(=O)OC)c1ccc(OC)cc1 (mixture of isomers) [Example 11] | 200 | 200 times | 
4 |  | CC[C@@H](NC(=O)[C@@H](N)CC(=O)O)C(=O)NC(CC(=O)OC)c1cccc2c1OCO2 (mixture of isomers) [Example 12] | 250 | 250 times | 
5 |  | CC[C@@H](NC(=O)[C@@H](N)CC(=O)O)C(=O)NC(CC(=O)OC)c1ccc(O)cc1 (mixture of isomers) [Example 13] | 200 | 200 times | 
6 |  | CC[C@@H](NC(=O)[C@@H](N)CC(=O)O)C(=O)NC(CC(=O)OC)c1ccc(C)cc1 (mixture of isomers) [Example 14] | 200 | 200 times | 
7 |  | CC[C@@H](NC(=O)[C@@H](N)CC(=O)O)C(=O)NC(CC(=O)OC)C1CCCCC1 (mixture of isomers) [Example 15, α-L-aspartyl-D-α-aminobutyric acid (RS)-α-cyclohexyl-β-methoxycarbonylethylamide] | 700 | 700 times | 
8 |  | CC[C@@H](NC(=O)[C@H](CC(=O)O)NCCC(C)(C)C)C(=O)NC(CC(=O)OC)c1ccccc1 (mixture of isomers) [Example 18, N-3,3-dimethylbutyl-α-L-aspartyl-D-α-aminobutyric acid (RS)-α-methoxycarbonylmethylbenzylamide] | 1250 | 1,250 times | 
9 |  | COC(=O)CC(NC(=O)[C@H](NC(=O)[C@H](CC(=O)O)NCCC(C)(C)C)C(C)C)c1ccccc1 (mixture of isomers) [Example 19, N-3,3-dimethylbutyl-α-L-aspartyl-D-valine (RS)-α-methoxycarbonylmethylbenzylamide] | 1250 | 1,250 times | 
10 |  | CC[C@@H](NC(=O)[C@H](CC(=O)O)NCCC(C)(C)C)C(=O)NC(CC(=O)OC)C1CCCCC1 (mixture of isomers) [Example 20, N-3,3-dimethylbutyl-α-L-aspartyl-D-α-aminobutyric acid (RS)-α-cyclohexyl-β-methoxycarbonylethylamide] | 1250 | 1,250 times | 
11 | approximately 220 hours | CSC[C@H](NC(=O)[C@H](NC(=O)[C@@H](N)CC(=O)O)C(C)C)c1ccccc1 [Example 1, α-L-aspartyl-D-valine (R)-α-methylthiomethylbenzylamide] | 3000 | 3,000 times | approximately 3,000 times that of sugar
12 |  | CSC[C@H](NC(=O)[C@@H](C)NC(=O)[C@@H](N)CC(=O)O)c1ccccc1 [Example 2, α-L-aspartyl-D-alanine (R)-α-methylthiomethylbenzylamide] | 1000 | 1,000 times | 
13 |  | CC[C@@H](NC(=O)[C@@H](N)CC(=O)O)C(=O)N[C@@H](CSC)c1ccccc1 [Example 3, α-L-aspartyl-D-α-aminobutyric acid (R)-α-methylthiomethylbenzylamide] | 4000 | 4,000 times | approximately 4,000 times that of sugar
14 | ~27.1 days | CC[C@@H](C)[C@@H](NC(=O)[C@@H](N)CC(=O)O)C(=O)N[C@@H](CSC)c1ccccc1 [Example 4, α-L-aspartyl-D-isoleucine (R)-α-methylthiomethylbenzylamide] | 5000 | 5,000 times | approximately 5,000 times that of sugar
15 | ~5.79 days | COC(=O)C[C@H](NC(=O)[C@H](NC(=O)[C@@H](N)CC(=O)O)C(C)C)c1ccccc1 [Example 5, α-L-aspartyl-D-valine (S)-α-methoxycarbonylmethylbenzylamide] | 1500 | 1,500 times | approximately 1,500 times that of sugar
16 |  | CC[C@@H](NC(=O)[C@@H](N)CC(=O)O)C(=O)NC1(c2ccccc2)CCCC1 [Example 7, α-L-aspartyl-D-α-aminobutyric acid α-phenylcyclopentylamide] | 750 | 750 times | 
17 |  | CC(C)[C@@H](NC(=O)[C@@H](N)CC(=O)O)C(=O)NC1(c2ccccc2)CCCC1 [Example 8, α-L-aspartyl-D-valine α-phenylcyclopentylamide] | 1200 | 1,200 times | approximately 1,200 times that of sugar
18 |  | CC[C@@H](C)[C@@H](NC(=O)[C@@H](N)CC(=O)O)C(=O)NC(C)(C)c1ccccc1 [Example 9, α-L-aspartyl-D-isoleucine α,α-dimethylbenzylamide] | 250 | 250 times | 
19 |  | CC(C)[C@@H](NC(=O)[C@@H](N)CC(=O)O)C(=O)NC(C)(C)c1ccccc1 [Example 16, α-L-aspartyl-D-valine α,α-dimethylbenzylamide] | 500 | 500 times | 
20 |  | CSC[C@H](NC(=O)[C@H](NC(=O)[C@H](CC(=O)O)NCCC(C)(C)C)C(C)C)c1ccccc1 [Example 17, N-3,3-dimethylbutyl-α-L-aspartyl-D-valine (R)-α-methylthiomethylbenzylamide] | 5000 | 5,000 times | approximately 5,000 times that of sugar
21 | approximately 23 hours | COC(=O)[C@H](Cc1ccccc1)NC(=O)[C@@H](N)CC(=O)O [aspartame, reference compound] (H-Asp-Phe-OMe) |  |  | 
